These results are taken from patent US11312719B2, “9-substituted amino triazolo quinazoline derivatives as adenosine receptor antagonists, pharmaceutical compositions and their use” (Merck Sharp & Dohme Corp., priority 2018, dated 2022).

One assay concerns the target human A2B receptors (Homo sapiens (Human), UniProt P29275). In words: A2B antagonism in cAMP cell-based assay (LANCE cAMP, HEK293). The note with it: HEK293 cells expressing human A2B receptor. The gist of the method:
(§1)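 HEK293 cells expressing human A2A or A2B, in HBSS/5 mM HEPES/200 nM rolipram, were preincubated with compound (0.5–10,000 nM, 0.25% DMSO) 30 min at 37° C. Adenosine was then added from 300 nM (A2A) or 600 nM (A2B) solution for 30 min.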
(In general: Time-resolved FRET reads energy transfer from a long-lived donor to a nearby acceptor.)

The target of another assay is human A2A receptors (Homo sapiens (Human), UniProt P29274). Kind of assay: A2A antagonism in cAMP cell-based assay (LANCE cAMP, HEK293). The following applies: HEK293 cells expressing human A2A receptor. The gist of the method:
as §1

Chain of human A2A receptors (P29274 whole entry): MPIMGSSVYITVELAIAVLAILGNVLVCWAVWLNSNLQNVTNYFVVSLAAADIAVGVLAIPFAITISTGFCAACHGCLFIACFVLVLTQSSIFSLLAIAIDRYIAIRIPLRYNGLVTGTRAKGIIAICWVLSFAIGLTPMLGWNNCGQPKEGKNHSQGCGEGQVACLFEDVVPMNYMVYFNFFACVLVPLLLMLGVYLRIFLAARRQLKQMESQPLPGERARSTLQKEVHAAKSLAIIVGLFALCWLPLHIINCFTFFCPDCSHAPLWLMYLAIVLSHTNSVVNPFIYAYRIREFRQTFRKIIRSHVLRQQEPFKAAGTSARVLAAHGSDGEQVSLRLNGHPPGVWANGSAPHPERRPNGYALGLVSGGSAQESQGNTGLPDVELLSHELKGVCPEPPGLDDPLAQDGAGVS
Chain of human A2B receptors (P29275 whole entry): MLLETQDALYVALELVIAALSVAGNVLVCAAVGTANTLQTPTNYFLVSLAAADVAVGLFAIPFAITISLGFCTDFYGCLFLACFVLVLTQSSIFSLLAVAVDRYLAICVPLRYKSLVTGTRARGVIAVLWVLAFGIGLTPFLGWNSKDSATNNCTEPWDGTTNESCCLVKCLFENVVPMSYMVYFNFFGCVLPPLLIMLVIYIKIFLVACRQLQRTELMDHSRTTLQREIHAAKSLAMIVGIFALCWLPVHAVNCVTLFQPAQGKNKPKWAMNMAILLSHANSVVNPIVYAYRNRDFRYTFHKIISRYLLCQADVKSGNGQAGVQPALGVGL

Turning to `COc1cc(F)cc2c1nc(N)n1nc(C3CCC(C)N(c4cnn(C(C)(C)C(C)O)c4)C3)nc21` (single isomer, unassigned) [Example 269, (S or R)-3-(4-((2S,5R or 2R,5S)-5-(5-amino-9-fluoro-7-methoxy-[1,2,4]triazolo[1,5-c]quinazolin-2-yl)-2-methylpiperidin-1-yl)-1H-pyrazol-1-yl)-3-methylbutan-2-ol], the IC50 against human A2B receptors was 0.0064 µM; against human A2A receptors, 0.0012 µM.
In the same order, the values of `COc1cc2nc(N)n3nc(C4CCC(C)N(c5cnn(C(C)(CO)CO)c5)C4)nc3c2cc1F` (single isomer, unassigned) [Example 251, 2-(4-((2R,5S or 2S,5R)-5-(5-amino-9-fluoro-8-methoxy-[1,2,4]triazolo[1,5-c]quinazolin-2-yl)-2-methylpiperidin-1-yl)-1H-pyrazol-1-yl)-2-methylpropane-1,3-diol] are 0.387 µM and 0.0395 µM.
Consider `COc1cc2nc(N)n3nc([C@@H]4CCCN(c5cnn(C(C)C(C)O)c5)C4)nc3c2cc1F` (single isomer, unassigned) [Example 187, (2S,3S or 2R,3R)-3-(4-((R)-3-(5-amino-9-fluoro-8-methoxy-[1,2,4]triazolo[1,5-c]quinazolin-2-yl)piperidin-1-yl)-1H-pyrazol-1-yl)butan-2-ol], for which the IC50 came out at 0.0958 µM on human A2B receptors and 0.0026 µM against human A2A receptors.
On to `COc1cc2nc(N)n3nc(C4CCC(C)N(c5cnn(C(C)C(C)O)c5)C4)nc3c2cc1F` (single isomer, unassigned) [Example 236, (2S,3R or 2R,3S)-3-(4-((2S,5R or 2R,5S)-5-(5-amino-9-fluoro-8-methoxy-[1,2,4]triazolo[1,5-c]quinazolin-2-yl)-2-methylpiperidin-1-yl)-1H-pyrazol-1-yl)butan-2-ol], for which the IC50 at human A2B receptors amounted to 0.0051 µM; at human A2A receptors, 0.001 µM.
Regarding `CC1CC(c2nc3c4cc(F)cc(F)c4nc(N)n3n2)CN(c2cnn(C(C)(C)CO)c2)C1` (single isomer, unassigned) [Example 180, 2-(4-((3R,5R or 3S,5S)-3-(5-amino-7,9-difluoro-[1,2,4]triazolo[1,5-c]quinazolin-2-yl)-5-methylpiperidin-1-yl)-1H-pyrazol-1-yl)-2-methylpropan-1-ol], the IC50 is 5.34 µM on human A2B receptors and 0.054 µM on human A2A receptors.
Consider `COc1cc2nc(N)n3nc([C@@H]4C[C@H](C)CN(c5cn([C@@H](C)[C@H](C)O)nc5C)C4)nc3c2cc1F` (single isomer, unassigned) [Example 208, (2S,3S or 2R,3R)-3-(4-((3R,5S or 3S,5R)-3-(5-amino-9-fluoro-8-methoxy-[1,2,4]triazolo[1,5-c]quinazolin-2-yl)-5-methylpiperidin-1-yl)-3-methyl-1H-pyrazol-1-yl)butan-2-ol], for which the IC50 on human A2B receptors came to 2.8 µM; on human A2A receptors it was 0.0007 µM.
`CC1CCC(c2nc3c4cc(F)cc(F)c4nc(N)n3n2)CN1c1cnn(CC(C)(O)CO)c1` (single isomer, unassigned) [Example 256]: the values for the IC50 against human A2B receptors and against human A2A receptors were 3.89 µM and 0.241 µM, respectively.
On to `COc1cc2nc(N)n3nc([C@@H]4CC[C@H](C)N(c5cnn([C@H](C)[C@@H](C)O)c5)C4)nc3c2cc1F` (single isomer, unassigned) [Example 231, (2R,3R or 2S,3S)-3-(4-((2S,5R or 2R,5S)-5-(5-amino-9-fluoro-8-methoxy-[1,2,4]triazolo[1,5-c]quinazolin-2-yl)-2-methylpiperidin-1-yl)-1H-pyrazol-1-yl)butan-2-ol], for which the IC50 on human A2B receptors stood at 3.85 µM; at human A2A receptors it was 0.121 µM.
Consider `COc1cc2nc(N)n3nc(C4CCC(C)N(c5cnn(C(C)C(C)O)c5)C4)nc3c2cc1F` (single isomer, unassigned) [Example 238, (2S,3R or 2R,3S)-3-(4-((2R,5S or 2S,5R)-5-(5-amino-9-fluoro-8-methoxy-[1,2,4]triazolo[1,5-c]quinazolin-2-yl)-2-methylpiperidin-1-yl)-1H-pyrazol-1-yl)butan-2-ol], for which the IC50 was 2.44 µM on human A2B receptors and 0.0218 µM against human A2A receptors.
As to `Cc1nn(C(C)C(C)O)cc1N1CC(C)CC(c2nc3c4cc(F)cc(F)c4nc(N)n3n2)C1` (single isomer, unassigned) [Example 215, (2S,3S or 2R,3R)-3-(4-((3S,5R or 3R,5S)-3-(5-amino-7,9-difluoro-[1,2,4]triazolo[1,5-c]quinazolin-2-yl)-5-methylpiperidin-1-yl)-3-methyl-1H-pyrazol-1-yl)butan-2-ol], the IC50 is 0.0275 µM against human A2B receptors and 0.0004 µM against human A2A receptors.
In the same order, the values of `COc1cc2nc(N)n3nc([C@@H]4CC[C@H](C)N(c5cnn([C@@H](C)[C@H](C)O)c5)C4)nc3c2cc1F` (single isomer, unassigned) [Example 228, (2S,3S or 2R,3R)-3-(4-((2S,5R or 2R,5S)-5-(5-amino-9-fluoro-8-methoxy-[1,2,4]triazolo[1,5-c]quinazolin-2-yl)-2-methylpiperidin-1-yl)-1H-pyrazol-1-yl)butan-2-ol] are 0.0161 µM and 0.0008 µM.
As for `COc1cc2nc(N)n3nc([C@@H]4CCCN(c5cnn(C(C)C(C)O)c5)C4)nc3c2cc1F` (single isomer, unassigned) [Example 200, (2S,3R or 2R,3S)-3-(4-((R)-3-(5-amino-9-fluoro-8-methoxy-[1,2,4]triazolo[1,5-c]quinazolin-2-yl)piperidin-1-yl)-1H-pyrazol-1-yl)butan-2-ol], the IC50 on human A2B receptors was determined as 0.102 µM; on human A2A receptors, 0.0025 µM.
Regarding `COc1cc(F)cc2c1nc(N)n1nc(C3CC(C)CN(c4cnn(C(C)C(C)O)c4C)C3)nc21` (single isomer, unassigned) [Example 220, (2S,3S or 2R,3R)-3-(4-((3R,5S or 3S,5R)-3-(5-amino-9-fluoro-7-methoxy-[1,2,4]triazolo[1,5-c]quinazolin-2-yl)-5-methylpiperidin-1-yl)-5-methyl-1H-pyrazol-1-yl)butan-2-ol], the “A2B cAMP % Inh. @10000 nM” value at human A2B receptors (at 10000 nM) was determined as 30% Inh. For the same molecule, the IC50 on human A2A receptors turned out to be 0.0204 µM.
`CC(O)C(C)n1cc(N2CCC[C@@H](c3nc4c5cc(F)cc(F)c5nc(N)n4n3)C2)cn1` (single isomer, unassigned) [Example 198, (2R,3R or 2S,3S)-3-(4-((R)-3-(5-amino-7,9-difluoro-[1,2,4]triazolo[1,5-c]quinazolin-2-yl)piperidin-1-yl)-1H-pyrazol-1-yl)butan-2-ol]: the IC50 against human A2B receptors was 0.0524 µM; against human A2A receptors, 0.0043 µM.
Take `COc1cc2nc(N)n3nc(C4CC(C)CN(c5cnn(C(C)(C)CO)c5)C4)nc3c2cc1F` (racemic) [Example 156, racemic, trans-2-(4-(3-(5-amino-9-fluoro-8-methoxy-[1,2,4]triazolo[1,5-c]quinazolin-2-yl)-5-methylpiperidin-1-yl)-1H-pyrazol-1-yl)-2-methylpropan-1-ol]: the IC50 against human A2B receptors came to 0.358 µM; at human A2A receptors, 0.0095 µM.
Turning to `COc1cc(F)cc2c1nc(N)n1nc([C@@H]3CCCN(c4cnn(C(C)C(C)O)c4)C3)nc21` (single isomer, unassigned) [Example 201, (2R,3S or 2S,3R)-3-(4-((R)-3-(5-amino-9-fluoro-7-methoxy-[1,2,4]triazolo[1,5-c]quinazolin-2-yl)piperidin-1-yl)-1H-pyrazol-1-yl)butan-2-ol], the values for the IC50 on human A2B receptors and against human A2A receptors were 0.0384 µM and 0.0019 µM, respectively.

In general, IC50 refers to the point on the concentration scale where inhibition reaches its midpoint. The low end stands for higher potency, the high end for lower potency.
